The target of experiment [1] is Receptor-interacting serine/threonine-protein kinase 2 (Homo sapiens) (UniProt O43353). The experiment can be described thus: Inhibition of wild type recombinant human His6-tagged RIPK2 at 5 uM using RS repeat peptide substrate incubated for 2 hrs by ADP-Glo assay. For orientation: ADP-Glo turns the ADP formed in a reaction into a luminescent signal.
Experiment [2] has as its system Receptor-interacting serine/threonine-protein kinase 2 (Homo sapiens), O43353 [R171C]. The experiment can be described thus: Inhibition of recombinant human His6-tagged RIPK2 R171C mutant at 5 uM using RS repeat peptide substrate incubated for 2 hrs by ADP-Glo assay.
Experiment [3] has as its target Receptor-interacting serine/threonine-protein kinase 2 (Homo sapiens) (UniProt O43353). The experiment in a line: Inhibition of wild type recombinant human His6-tagged RIPK2 at 0.5 uM using RS repeat peptide substrate incubated for 2 hrs by ADP-Glo assay.
The species entered for experiment [4] is Homo sapiens. The experiment in a line: Selectivity index, ratio of IC50 for recombinant human His6-tagged RIPK2 R171C mutant to IC50 for wild type recombinant human His6-tagged RIPK2.
The species entered for experiment [5] is Homo sapiens. The experiment in a line: Selectivity index, ratio of inhibition of N-terminal GST tagged recombinant human KDR (789 to end residues) expressed in baculovirus infected Sf9 cells to inhibition of wild type recombinant human His6-tagged RIPK2.
Experiment [6] deals with Vascular endothelial growth factor receptor 2 (Homo sapiens) (UniProt P35968). The experiment in a line: Inhibition of N-terminal GST tagged recombinant human KDR (789 to end residues) expressed in baculovirus infected Sf9 cells at 20 uM using poly-E4Y1 substrate incubated for 2 hrs by ADP-Glo assay.
Experiment [7] concerns the target Receptor-interacting serine/threonine-protein kinase 2 (Homo sapiens) (UniProt O43353). The experiment in a line: Inhibition of wild type recombinant human His6-tagged RIPK2 at 10 uM using RS repeat peptide substrate incubated for 2 hrs by ADP-Glo assay.

A word on the inhibition: it is the share of the control response that was lost under treatment.

The source made the active and inactive calls. The rule behind the calls is not given here.

Sequence of Receptor-interacting serine/threonine-protein kinase 2 (Homo sapiens), O43353 [R171C] (O43353 whole entry R171C): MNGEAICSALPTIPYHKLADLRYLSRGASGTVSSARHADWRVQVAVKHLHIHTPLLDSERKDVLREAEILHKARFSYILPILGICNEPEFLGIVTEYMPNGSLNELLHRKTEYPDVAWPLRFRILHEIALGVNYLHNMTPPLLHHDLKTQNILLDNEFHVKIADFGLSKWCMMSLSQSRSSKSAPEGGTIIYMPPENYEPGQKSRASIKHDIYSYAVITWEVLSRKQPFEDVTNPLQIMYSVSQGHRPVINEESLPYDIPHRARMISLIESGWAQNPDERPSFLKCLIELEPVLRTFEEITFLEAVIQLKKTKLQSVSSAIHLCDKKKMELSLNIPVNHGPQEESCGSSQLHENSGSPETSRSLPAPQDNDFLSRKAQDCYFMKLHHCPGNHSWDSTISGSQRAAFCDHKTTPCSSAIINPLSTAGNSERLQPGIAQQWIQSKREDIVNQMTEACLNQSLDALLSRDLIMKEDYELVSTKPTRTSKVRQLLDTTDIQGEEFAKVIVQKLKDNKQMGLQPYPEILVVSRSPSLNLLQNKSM
Sequence of Receptor-interacting serine/threonine-protein kinase 2 (Homo sapiens) (O43353 whole entry): as the sequence (O43353 whole entry R171C) above, with C171R counted along it
Sequence of Vascular endothelial growth factor receptor 2 (Homo sapiens) (P35968 whole entry): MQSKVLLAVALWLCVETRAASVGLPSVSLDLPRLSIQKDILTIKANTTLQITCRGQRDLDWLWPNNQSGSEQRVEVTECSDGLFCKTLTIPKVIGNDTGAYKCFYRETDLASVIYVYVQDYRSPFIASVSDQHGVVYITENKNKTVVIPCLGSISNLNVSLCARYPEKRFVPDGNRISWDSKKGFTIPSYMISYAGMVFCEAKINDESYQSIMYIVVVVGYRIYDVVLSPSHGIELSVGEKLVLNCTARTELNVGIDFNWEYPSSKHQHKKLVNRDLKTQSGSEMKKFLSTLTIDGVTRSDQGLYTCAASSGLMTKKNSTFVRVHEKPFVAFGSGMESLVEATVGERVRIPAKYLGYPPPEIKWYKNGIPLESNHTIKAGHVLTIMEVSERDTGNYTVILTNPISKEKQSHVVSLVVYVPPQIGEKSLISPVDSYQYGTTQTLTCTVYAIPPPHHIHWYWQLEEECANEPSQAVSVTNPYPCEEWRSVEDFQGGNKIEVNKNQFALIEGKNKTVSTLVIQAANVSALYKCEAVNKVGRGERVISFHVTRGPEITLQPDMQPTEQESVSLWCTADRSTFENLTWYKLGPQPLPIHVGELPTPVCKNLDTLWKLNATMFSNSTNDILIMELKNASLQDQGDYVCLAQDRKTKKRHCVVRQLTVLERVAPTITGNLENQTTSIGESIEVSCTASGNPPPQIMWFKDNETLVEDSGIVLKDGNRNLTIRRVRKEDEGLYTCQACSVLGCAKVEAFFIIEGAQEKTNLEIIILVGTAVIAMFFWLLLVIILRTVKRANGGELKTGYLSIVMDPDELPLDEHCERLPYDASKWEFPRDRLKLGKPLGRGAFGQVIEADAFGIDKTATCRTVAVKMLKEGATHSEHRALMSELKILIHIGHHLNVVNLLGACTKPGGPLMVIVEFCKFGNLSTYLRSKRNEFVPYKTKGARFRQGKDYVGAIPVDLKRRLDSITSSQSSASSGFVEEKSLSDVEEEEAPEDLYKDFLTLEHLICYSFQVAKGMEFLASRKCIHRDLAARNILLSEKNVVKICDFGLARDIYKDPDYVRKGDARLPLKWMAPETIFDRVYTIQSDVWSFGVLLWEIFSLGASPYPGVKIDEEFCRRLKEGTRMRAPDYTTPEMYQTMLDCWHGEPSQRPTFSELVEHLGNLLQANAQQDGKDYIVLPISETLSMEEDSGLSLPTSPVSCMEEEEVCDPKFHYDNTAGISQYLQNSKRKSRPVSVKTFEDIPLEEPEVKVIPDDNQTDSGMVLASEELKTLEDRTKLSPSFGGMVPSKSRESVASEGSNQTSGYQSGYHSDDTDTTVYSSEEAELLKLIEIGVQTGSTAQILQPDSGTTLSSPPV

For `CNC(=O)c1cc(Oc2ccc(NC(=O)Nc3cccc(CC(=O)O)c3)c(F)c2)ccn1`, the inhibition result in experiment [1] and in experiment [2] was “inactive” each time.
With `CNC(=O)c1cc(Oc2ccc(NC(=O)Nc3ccc(OCCS(C)(=O)=O)c(C)c3)c(F)c2)ccn1`, the inhibition in experiment [3] was found to be 35%.
For the compound `CNC(=O)c1cc(Oc2ccc(NC(=O)Nc3cccc(CCN)c3)c(F)c2)ccn1`, the inhibition in experiment [3] came out at 12%.
In the case of `CNC(=O)c1cc(Oc2ccc(NC(=O)Nc3cccc(C(C)(C)C(=O)O)c3)c(F)c2)ccn1`, the inhibition in experiment [1] was determined as 47%.
Consider `CNC(=O)c1cc(Oc2ccc(NC(=O)Nc3cccc(C(=O)O)c3)c(F)c2)ccn1`, for which, in experiment [3], the inhibition result was “inactive”.
Turning to `CNC(=O)c1cc(Oc2ccc(NC(=O)Nc3ccc(SCC(=O)O)c(F)c3)c(F)c2)ccn1`, the inhibition in experiment [1] stood at 70%; in experiment [6], 35.8%; in experiment [2], 64%. Moreover, in experiment [4], the Ratio IC50 was determined as 2. In experiment [5], the Selectivity Index is above 10.
Consider `CNC(=O)c1cc(Oc2ccc(NC(=O)Nc3ccc(SCC(=O)O)cc3)c(F)c2)ccn1`, for which the inhibition came out at 27% in experiment [1] and 17% in experiment [2].
With `CNC(=O)c1cc(Oc2ccc(NC(=O)Nc3ccc(C(=O)O)cc3)c(F)c2)ccn1`, the inhibition result in experiment [3] is “inactive”.
In the case of `CNC(=O)c1cc(Oc2ccc(NC(=O)Nc3ccc(N4CC(=O)NS4(=O)=O)c(C)c3)c(F)c2)ccn1`, the inhibition in experiment [3] was 1%.
`CNC(=O)c1cc(Oc2ccc(NC(=O)Nc3cccc(C(C)(C)N)c3)c(F)c2)ccn1`: the inhibition in experiment [3] was 32%.
Regarding `CNC(=O)c1cc(Oc2ccc(NC(=O)Nc3ccc(CC(=O)O)cc3)c(F)c2)ccn1`, in experiment [1], the inhibition was 18%.
Regarding `CNC(=O)c1cc(Oc2ccc(NC(=O)Nc3cccc(SCC(=O)O)c3)c(F)c2)ccn1`, in experiment [1], the inhibition was 25%.
On to `Nc1ccc(SCC(=O)O)c(F)c1`, for which the inhibition in experiment [7] turned out to be 10%.

The record behind these values is ChEMBL document CHEMBL4184261, “Activation loop targeting strategy for design of receptor-interacting protein kinase 2 (RIPK2) inhibitors” (Bioorg Med Chem Lett, 2018).
